# Patent US12084453B2, “Bicyclic amines as CDK12 inhibitors” (Incyte Corporation, priority 2021, dated 2024)
# pIC50: −log10 of the molar value.
# Molecular target: T1, CDK12 complexed with Cyclin K (Homo sapiens, UniProt Q9NYV4)
# T1 construct: GST (N); host or cells: baculovirus expression system
# Experiment: CDK enzymatic assay (HTRF, LANCE Ultra kinase assay)
# Type: biochemical
# Conditions: 60 minutes pre-incubation with compound; 1 mM ATP
# Method: The following activity of the CDK enzymes in complex with their respective cyclins we assayed: CDK1 complexed with Cyclin B1; CDK2 complexed with Cyclin E1; CDK4 complexed with Cyclin D1; CDK6 complexed with Cyclin D1; CDK6 complexed with Cyclin D3; CDK9 complexed with Cyclin T1; CDK7 complexed with Cyclin H/MAT1; CDK2 complexed with Cyclin A2; CDK5 complexed with p35; CDK12 complexed with Cyclin K; CDK13 complexed with Cyclin K. These in vitro enzyme activity are assayed using homogeneous time-resolved energy transfer (HTRF), which measures phosphorylation of a peptide substrate. The LANCE® Ultra kinase assay (PerkinElmer) uses a ULight™-labeled EIF4E-binding protein 1 (THR37/46) peptide (DYSTTPGGTLFSTTPGTRI (SEQ ID NO: 1)) substrate and a Europium-labeled anti-phospho-4E-BP1 antibody (CDK2, CDK1, CDK4, CDK6, CDK9, CDK12, CDK13) or ULight™-labeled Myelin Basic Protein peptide (VTPRTPPP (SEQ ID NO: 2)) substrate and a Europium-labeled anti-phospho-MBP antibody (CDK7). Each CDK enzyme activity assays utilized human CDK co-expressed as N-terminal GST-tagged protein with its full length cyclin partner using a baculovirus expression system.
# Enzyme was pre-incubated with compounds for 30 minutes (CDK1,2,4,6,9) or 60 minutes (CDK7, CDK12, CDK13) prior to addition of ATP and Ulight-peptide (1 mM and 50 nM final, respectively), in assay buffer containing 50 mM HEPES pH 7.5, 1 mM EGTA, 10 mM MgCl2, 2 mM DTT, 0.05 mg/mL BSA, and 0.01% Tween 20. The reaction was then incubated for 60-90 minutes at room temperature. The reactions were stopped by the addition of EDTA and Europium labeled antibody, for a final concentration of 15 mM and 1.0-1.5 nM, respectively. HTRF signals were read after 15-120 minutes. A ratio of fluorescence transferred to the labeled substrate (665 nm) relative to fluorescence of the Europium donor (620 nm) represents the extent of phosphorylation. Ratios for treated wells were normalized to DMSO only (100% activity) and no enzyme (0% activity) controls. Normalized data was analyzed using a three or four parameter dose response curve to determine IC50 for each compound and are shown in Table A. Control reference inhibitors were included on each plate.
# T1 sequence (Q9NYV4 whole entry): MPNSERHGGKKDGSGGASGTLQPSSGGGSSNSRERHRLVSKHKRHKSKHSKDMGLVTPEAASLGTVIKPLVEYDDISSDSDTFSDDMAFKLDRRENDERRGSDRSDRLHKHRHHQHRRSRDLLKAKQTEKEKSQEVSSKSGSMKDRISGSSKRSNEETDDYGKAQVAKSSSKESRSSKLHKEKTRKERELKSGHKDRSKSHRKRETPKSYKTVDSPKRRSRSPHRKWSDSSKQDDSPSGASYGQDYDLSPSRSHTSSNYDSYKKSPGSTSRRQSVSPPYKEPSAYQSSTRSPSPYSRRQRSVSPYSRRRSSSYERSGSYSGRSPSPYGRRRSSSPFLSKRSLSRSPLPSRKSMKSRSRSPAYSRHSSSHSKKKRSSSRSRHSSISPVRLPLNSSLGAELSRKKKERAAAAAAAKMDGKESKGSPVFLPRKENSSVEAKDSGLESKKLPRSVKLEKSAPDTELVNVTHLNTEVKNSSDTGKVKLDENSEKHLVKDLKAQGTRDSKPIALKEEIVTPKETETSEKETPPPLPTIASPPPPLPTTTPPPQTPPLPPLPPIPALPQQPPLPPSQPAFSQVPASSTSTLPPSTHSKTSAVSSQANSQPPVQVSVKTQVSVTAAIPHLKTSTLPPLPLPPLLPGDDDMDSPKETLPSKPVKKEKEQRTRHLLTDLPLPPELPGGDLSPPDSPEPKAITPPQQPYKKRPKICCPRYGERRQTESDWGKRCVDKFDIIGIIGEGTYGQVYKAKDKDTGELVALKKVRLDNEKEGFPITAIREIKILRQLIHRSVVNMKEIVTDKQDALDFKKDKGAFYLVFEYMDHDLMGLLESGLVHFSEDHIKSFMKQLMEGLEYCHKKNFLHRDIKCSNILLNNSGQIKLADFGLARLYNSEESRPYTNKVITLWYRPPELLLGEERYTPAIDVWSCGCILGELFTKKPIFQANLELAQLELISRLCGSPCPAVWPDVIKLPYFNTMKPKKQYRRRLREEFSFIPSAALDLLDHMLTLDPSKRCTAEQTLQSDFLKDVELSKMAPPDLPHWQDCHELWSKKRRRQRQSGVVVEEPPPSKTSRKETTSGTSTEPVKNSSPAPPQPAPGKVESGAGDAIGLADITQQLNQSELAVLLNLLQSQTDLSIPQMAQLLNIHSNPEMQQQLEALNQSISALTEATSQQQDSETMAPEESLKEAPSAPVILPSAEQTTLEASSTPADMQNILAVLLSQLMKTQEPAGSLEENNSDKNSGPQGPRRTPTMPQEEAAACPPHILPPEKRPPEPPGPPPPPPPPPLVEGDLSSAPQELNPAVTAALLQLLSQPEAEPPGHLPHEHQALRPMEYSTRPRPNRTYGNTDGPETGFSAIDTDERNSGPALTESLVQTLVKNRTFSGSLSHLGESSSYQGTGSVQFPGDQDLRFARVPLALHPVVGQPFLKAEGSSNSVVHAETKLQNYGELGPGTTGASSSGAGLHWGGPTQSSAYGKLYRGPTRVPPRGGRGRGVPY
# T1 sequence (O75909 whole entry partner): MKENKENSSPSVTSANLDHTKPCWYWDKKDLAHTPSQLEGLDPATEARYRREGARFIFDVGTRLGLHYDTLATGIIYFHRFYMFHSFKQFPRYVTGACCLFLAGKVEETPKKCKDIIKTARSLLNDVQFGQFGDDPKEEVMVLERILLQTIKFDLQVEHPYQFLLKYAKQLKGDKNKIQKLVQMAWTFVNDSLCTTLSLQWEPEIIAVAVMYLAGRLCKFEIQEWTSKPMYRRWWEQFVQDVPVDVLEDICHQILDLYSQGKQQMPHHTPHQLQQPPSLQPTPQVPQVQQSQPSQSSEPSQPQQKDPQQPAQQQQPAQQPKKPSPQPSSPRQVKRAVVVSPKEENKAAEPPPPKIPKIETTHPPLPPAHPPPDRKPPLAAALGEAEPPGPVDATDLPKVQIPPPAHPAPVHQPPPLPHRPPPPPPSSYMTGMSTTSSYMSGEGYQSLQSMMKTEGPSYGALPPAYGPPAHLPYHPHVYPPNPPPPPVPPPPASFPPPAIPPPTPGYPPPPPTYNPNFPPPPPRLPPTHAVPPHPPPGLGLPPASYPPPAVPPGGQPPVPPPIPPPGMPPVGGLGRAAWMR
row,SMILES,pIC50
1,"C=CC(=O)Nc1ccc(C(=O)N2CC[C@@H](Nc3nc4ccc(-c5cn[nH]c5)c(C(C)C)n4n3)C2)cc1F [Example 19, (R)-N-(2-Fluoro-4-(3-((5-isopropyl-6-(1H-pyrazol-4-yl)-[1,2,4]triazolo[1,5-a]pyridin-2-yl)amino)pyrrolidine-1-carbonyl)phenyl)acrylamide]",> 7.30
2,"C=CC(=O)Nc1ccc2c(c1)C(=O)N([C@H]1CCC[C@@H](Nc3nc4ccc(-c5cn[nH]c5)c(N5CCCCC5)n4n3)C1)C2 [Example 21, N-(3-Oxo-2-((1S,3R)-3-((5-(piperidin-1-yl)-6-(1H-pyrazol-4-yl)-[1,2,4]triazolo[1,5-a]pyridin-2-yl)amino)cyclohexyl)isoindolin-5-yl)acrylamide]",> 7.30
3,"C=CC(=O)Nc1cnc(N2CCC[C@@H](Nc3nc4ccc(-c5cn[nH]c5)c(C(C)C)n4n3)C2)c(C)c1 [Example 37, (R)-N-(6-(3-((5-isopropyl-6-(1H-pyrazol-4-yl)-[1,2,4]triazolo[1,5-a]pyridin-2-yl)amino)piperidin-1-yl)-5-methylpyridin-3-yl)acrylamide]",> 7.30
4,"C=CC(=O)Nc1ccc(O[C@H]2CCC[C@@H](Nc3nc4ccc(-c5cn[nH]c5)c(N5CCCCC5)n4n3)C2)cc1 [Example 16, N-(4-(((1S,3R)-3-((5-(Piperidin-1-yl)-6-(1H-pyrazol-4-yl)-[1,2,4]triazolo[1,5-a]pyridin-2-yl)amino)cyclohexyl)oxy)phenyl)acrylamide]",> 7.30
5,"C=CC(=O)Nc1ccc(C(=O)N2CCC[C@@H](Nc3nc4cnc(-c5cn[nH]c5)c(OC(C)C)n4n3)C2)c(F)c1 [Example 4, (R)-N-(3-Fluoro-4-(3-((5-isopropoxy-6-(1H-pyrazol-4-yl)-[1,2,4]triazolo[1,5-a]pyrazin-2-yl)amino)piperidine-1-carbonyl)phenyl)acrylamide]",> 7.30
6,"C=CC(=O)Nc1ccc2c(c1)C(=O)N([C@H]1CCC[C@@H](Nc3nc4ccc(-c5cn[nH]c5)c(C(C)C)n4n3)C1)C2 [Example 23, N-(2-((1S,3R)-3-((5-Isopropyl-6-(1H-pyrazol-4-yl)-[1,2,4]triazolo[1,5-a]pyridin-2-yl)amino)cyclohexyl)-3-oxoisoindolin-5-yl)acrylamide]",> 7.30
7,"C=CC(=O)Nc1ccc(C(=O)N2CC(Nc3nc4c(OC)c(-c5cn[nH]c5)ncn4n3)C2)cc1 [Example 3, N-(4-(3-((8-Methoxy-7-(1H-pyrazol-4-yl)-[1,2,4]triazolo[1,5-c]pyrimidin-2-yl)amino)azetidine-1-carbonyl)phenyl)acrylamide]",> 7.30
8,"C=CC(=O)Nc1ccc2sc(N3CCC[C@@H](Nc4nc5ccc(-c6cn[nH]c6)c(C(C)C)n5n4)C3)nc2c1 [Example 27, (R)-N-(2-(3-((5-Isopropyl-6-(1H-pyrazol-4-yl)-[1,2,4]triazolo[1,5-a]pyridin-2-yl)amino)piperidin-1-yl)benzo[d]thiazol-5-yl)acrylamide]",> 7.30
9,"C=CC(=O)Nc1ccc(C(=O)N2CCC[C@@H](Nc3nc4c(OC)c(-c5cn[nH]c5)ncn4n3)C2)cc1 [Example 5, (R)-N-(4-(3-((8-Methoxy-7-(1H-pyrazol-4-yl)-[1,2,4]triazolo[1,5-c]pyrimidin-2-yl)amino)piperidine-1-carbonyl)phenyl)acrylamide]",> 7.30
10,"C=CC(=O)Nc1ccc(C(=O)N2CCC[C@@H](Nc3nc4ccc(-c5cn[nH]c5)c(OC5CCOCC5)n4n3)C2)cc1 [Example 15, (R)-N-(4-(3-((6-(1H-Pyrazol-4-yl)-5-((tetrahydro-2H-pyran-4-yl)oxy)-[1,2,4]triazolo[1,5-a]pyridin-2-yl)amino)piperidine-1-carbonyl)phenyl)acrylamide]",> 7.30
11,"C=CC(=O)Nc1ccc(C(=O)N2CCC[C@@H](Nc3nc4ccc(-c5cn[nH]c5)c(N5CCOCC5)n4n3)C2)cc1 [Example 8, (R)-N-(4-(3-((5-Morpholino-6-(1H-pyrazol-4-yl)-[1,2,4]triazolo[1,5-a]pyridin-2-yl)amino)piperidine-1-carbonyl)phenyl)acrylamide]",> 7.30
12,"C=CC(=O)Nc1ccc2c(c1)C(=O)N([C@H]1CCC[C@@H](Nc3nc4ccc(-c5cn[nH]c5)c(C)n4n3)C1)C2 [Example 22, N-(2-((1S,3R)-3-((5-Methyl-6-(1H-pyrazol-4-yl)-[1,2,4]triazolo[1,5-a]pyridin-2-yl)amino)cyclohexyl)-3-oxoisoindolin-5-yl)acrylamide]",> 7.30
13,"C=CC(=O)Nc1ccc(C(=O)N2CCC[C@@H](Nc3nc4ccc(-c5cn[nH]c5)c(N5CCC(F)(F)CC5)n4n3)C2)cc1 [Example 13, (R)-N-(4-(3-((5-(4,4-Difluoropiperidin-1-yl)-6-(1H-pyrazol-4-yl)-[1,2,4]triazolo[1,5-a]pyridin-2-yl)amino)piperidine-1-carbonyl)phenyl)acrylamide]",6.30 to 7.30
14,"C=C(F)C(=O)Nc1ccc(C(=O)N2CC[C@@H](Nc3nc4cc(-c5cn[nH]c5)ccn4n3)C2)cc1 [Example 31, (R)-N-(4-(3-((7-(1H-Pyrazol-4-yl)-[1,2,4]triazolo[1,5-a]pyridin-2-yl)amino)pyrrolidine-1-carbonyl)phenyl)-2-fluoroacrylamide]",> 7.30
15,"C=CC(=O)Nc1ccc(C(=O)N2CC[C@@H](Nc3nc4ccc(-c5cn[nH]c5)c(C(F)(F)F)n4n3)C2)cc1 [Example 30, (R)-N-(4-(3-((6-(1H-Pyrazol-4-yl)-5-(trifluoromethyl)-[1,2,4]triazolo[1,5-a]pyridin-2-yl)amino)pyrrolidine-1-carbonyl)phenyl)acrylamide]",> 7.30
16,"C=CC(=O)Nc1ccc(C(=O)N2CC[C@@H](Nc3nc4ccc(-c5cn[nH]c5)c(C#N)n4n3)C2)cc1 [Example 17, (R)-N-(4-(3-((5-Cyano-6-(1H-pyrazol-4-yl)-[1,2,4]triazolo[1,5-a]pyridin-2-yl)amino)pyrrolidine-1-carbonyl)phenyl)acrylamide]",> 7.30
17,"C=C(F)C(=O)Nc1ccc(C(=O)N2CC[C@@H](Nc3nc4ccc(-c5cn[nH]c5)c(C(C)C)n4n3)C2)cc1 [Example 26, (R)-2-Fluoro-N-(4-(3-((5-isopropyl-6-(1H-pyrazol-4-yl)-[1,2,4]triazolo[1,5-a]pyridin-2-yl)amino)pyrrolidine-1-carbonyl)phenyl)acrylamide]",> 7.30
18,"C=CC(=O)Nc1ccc(C(=O)N2CCC[C@@H](Nc3nc4ccc(-c5cn[nH]c5)c(O[C@H]5CCOC5)n4n3)C2)cc1 [Example 14, N-(4-((R)-3-((6-(1H-Pyrazol-4-yl)-5-(((S)-tetrahydrofuran-3-yl)oxy)-[1,2,4]triazolo[1,5-a]pyridin-2-yl)amino)piperidine-1-carbonyl)phenyl)acrylamide]",> 7.30
19,"CC#CC(=O)Nc1ccc(C(=O)N2CC[C@@H](Nc3nc4c(C)c(-c5cn[nH]c5)ccn4n3)C2)cc1 [Example 33, (R)-N-(4-(3-((8-Methyl-7-(1H-pyrazol-4-yl)-[1,2,4]triazolo[1,5-a]pyridin-2-yl)amino)pyrrolidine-1-carbonyl)phenyl)but-2-ynamide]",> 7.30
20,"C=CC(=O)Nc1ccc(C(=O)N2CCCC(Nc3nc4ccc(-c5c[nH]nc5C)c(N5CCOCC5)n4n3)C2)cc1 (stereo not drawn) [Example 9, N-(4-(3-((6-(3-Methyl-1H-pyrazol-4-yl)-5-morpholino-[1,2,4]triazolo[1,5-a]pyridin-2-yl)amino)piperidine-1-carbonyl)phenyl)acrylamide]",< 6.30
21,"C=C(F)C(=O)Nc1ccc(C(=O)N2CC[C@@H](Nc3nc4c(C)c(-c5cn[nH]c5)ccn4n3)C2)cc1 [Example 32, (R)-2-Fluoro-N-(4-(3-((8-methyl-7-(1H-pyrazol-4-yl)-[1,2,4]triazolo[1,5-a]pyridin-2-yl)amino)pyrrolidine-1-carbonyl)phenyl)acrylamide]",> 7.30
22,"C=CC(=O)Nc1ccc(C(=O)N2CC(Nc3nc4cnc(-c5cn[nH]c5)c(OC(C)C)n4n3)C2)cc1 [Example 1, N-(4-(3-((5-Isopropoxy-6-(1H-pyrazol-4-yl)-[1,2,4]triazolo[1,5-a]pyrazin-2-yl)amino)azetidine-1-carbonyl)phenyl)acrylamide]",> 7.30
23,"C=CC(=O)Nc1ccc2sc(N3CCC[C@@H](Nc4nc5ccc(-c6cn[nH]c6)c(C)n5n4)C3)nc2c1 [Example 29, (R)-N-(2-(3-((5-Methyl-6-(1H-pyrazol-4-yl)-[1,2,4]triazolo[1,5-a]pyridin-2-yl)amino)piperidin-1-yl)benzo[d]thiazol-5-yl)acrylamide]",> 7.30
24,"C=CC(=O)Nc1ccc(C(=O)N2CCC[C@@H](Nc3nc4ccc(-c5cn[nH]c5)c(N5CCCC5)n4n3)C2)cc1 [Example 7, (R)-N-(4-(3-((6-(1H-Pyrazol-4-yl)-5-(pyrrolidin-1-yl)-[1,2,4]triazolo[1,5-a]pyridin-2-yl)amino)piperidine-1-carbonyl)phenyl)acrylamide]",> 7.30
